Test results taken from paper PMC5053523, “In Vitro Antibacterial Activity of Rhodanine Derivatives against Pathogenic Clinical Isolates” (PLoS ONE, 2016).
Read-outs that look alike come from different tables or passages of the source.

Legend:
[1] = test system: vancomycin resistant enterococci (VRE); assay: Broth microdilution MIC50/MIC90, VRE panel; assay type: cell-based; settings: Enterococcus, 10 VRE strains; for MIC90: VRE, read-out: MIC 90; for MIC50: read-out: MIC 50
[2] = test system: Bacillus anthracis; assay: microbe, parasite or virus in culture; assay type: cell-based
[3] = test system: B. licheniformis; assay: Broth microdilution MIC/MBC, B. licheniformis; assay type: cell-based; settings: Bacillus licheniformis; for MBC: read-out: MBC; for MIC: read-out: MIC
[4] = test system: Bacillus Strains; assay: Broth microdilution MIC50/MIC90 and MIC range, Bacillus strains panel; assay type: cell-based, Bacillus spp.; settings: 10 Bacillus strains
Excerpt: The broth microdilution technique was used, followed by subculturing on agar plates that were rhodanine—free. […] The MICs reported represent the lowest concentration of each compound necessary to inhibit bacterial growth and the MBCs represent the lowest concentration required to reduce the initial bacterial inoculum by ≥ 99.9%.

[5] = test system: Clostridium difficile; assay: MIC against Clostridium difficile, anaerobic broth dilution; assay type: cell-based; settings: Clostridioides difficile
Protocol: Clinical isolates of C. difficile were cultured on anaerobic blood agar and incubated anaerobically using container gas pack system at 37° C for 48 hours. The colonies were then suspended in pre-reduced phosphate buffered saline (PBS) and adjusted to 0.5 McFarland standard then diluted 1:300 in pre-reduced Supplemented Brain Heart Infusion broth. The bacterial suspension was then transferred to each well of 96-well plates, the drugs were added to the first row of wells in the required concentrations and serially diluted along the plates. The plates were incubated again anaerobically using container gas pack system at 37° C for 48 hours. The (MIC) recorded was the lowest concentration of the drug showing no visible growth of the bacteria.

[6] = test system: P. aeruginosa; assay: Broth microdilution MIC, P. aeruginosa; assay type: cell-based; settings: Pseudomonas aeruginosa
[7] = test system: K. pneumoniae; assay: Broth microdilution MIC, K. pneumoniae; assay type: cell-based
[8] = test system: Candida albicans; assay: MIC against Candida albicans; assay type: cell-based; settings: table prints none, read-out: MIC
[9] = test system: MRSA USA300; assay: MIC against MRSA USA300 with and without 4% human serum albumin; assay type: cell-based, Staphylococcus aureus; settings: Staphylococcus aureus, read-out: MIC against MRSA USA300
In short: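 MIC measured in tryptic soy broth spiked with 4% HSA and without it, using CLSI broth microdilution on MRSA USA300. Value reported is the lowest concentration preventing bacterial growth.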

[10] = test system: Escherichia coli O157:H7; assay: MIC with/without sub-MIC colistin, Escherichia coli O157:H7; assay type: cell-based
Protocol: (§1) The MIC of the rhodanines and control antibiotics, in the presence of a sub-inhibitory concentration of colistin or polymixin B nonapeptide (PMBN), against Gram-negative bacteria was evaluated as described before. The antibacterial activity of the rhodanines was further investigated against E. coli SM1411Δ acrAB, a strain that is deficient in the multidrug-resistant AcrAB efflux pump, as described before.

[11] = test system: Salmonella Typhimurium; assay: MIC with/without sub-MIC colistin, Salmonella Typhimurium; assay type: cell-based
Protocol: as §1

[12] = test system: Pseudomonas aeruginosa; assay: MIC with/without sub-MIC colistin, Pseudomonas aeruginosa; assay type: cell-based
Protocol: as §1

[13] = test system: Acinetobacter baumannii; assay: MIC with/without PMBN, Acinetobacter baumannii; assay type: cell-based
Protocol: as §1

[14] = test system: Escherichia coli O157:H7; assay: MIC with/without PMBN, Escherichia coli O157:H7; assay type: cell-based
Protocol: as §1

[15] = test system: Salmonella Typhimurium; assay: MIC with/without PMBN, Salmonella Typhimurium; assay type: cell-based
Protocol: as §1

[16] = test system: Klebsiella pneumoniae; assay: MIC with/without PMBN, Klebsiella pneumoniae; assay type: cell-based
Protocol: as §1

[17] = test system: Pseudomonas aeruginosa; assay: MIC with/without PMBN, Pseudomonas aeruginosa; assay type: cell-based
Protocol: as §1

[18] = NCIB9375, B. licheniformis Gibson 46 (NCIB 9375) NR-2494
[19] = NRS712, B. licheniformis NRS 712 NR-2499
[20] = C. difficile Isolate-1 NR-13427
[21] = C. difficile Toxigenic Strain P8 NR-32888
[22] = ATCC10231, C. albicans ATCC 10231, unit from abstract
[23] = C. albicans NR 29434, unit from abstract
[24] = C. albicans NR 29435, unit from abstract
[25] = C. albicans NR29437, unit from abstract
[26] = C. albicans NR29438, unit from abstract
[27] = C. albicans NR 29446, unit from abstract
[28] = C. albicans NR 29448, unit from abstract
[29] = C. albicans NR 29449, unit from abstract
[30] = C. albicans NR 29453, unit from abstract
[31] = C. albicans NR 294436, unit from abstract
[32] = Escherichia coli O157:H7 ATCC 35150, colistin (+) […], read-out: MIC
[33] = Escherichia coli O157:H7 ATCC 700728, colistin (+) […], read-out: MIC
[34] = Salmonella Typhimurium ATCC 700720, colistin (+) […], read-out: MIC
[35] = Salmonella enterica, ATCC 700720 / TYPHIMURIUM
[36] = Pseudomonas aeruginosa ATCC 921, colistin (+) […], read-out: MIC
[37] = Pseudomonas aeruginosa, ATCC921
[38] = Acinetobacter baumannii ATCC BAA747, PMBN (+) 4 μg/mL, read-out: MIC
[39] = Acinetobacter baumannii ATCC BAA19606, PMBN (+) 4 μg/mL, read-out: MIC
[40] = Acinetobacter baumannii, ATCCBAA747
[41] = Acinetobacter baumannii, ATCCBAA19606
[42] = Escherichia coli O157:H7 ATCC 35150, PMBN (+) 4 μg/mL, read-out: MIC
[43] = Escherichia coli O157:H7 ATCC 700728, PMBN (+) 4 μg/mL, read-out: MIC
[44] = Salmonella Typhimurium ATCC 700720, PMBN (+) 4 μg/mL, read-out: MIC
[45] = Klebsiella pneumoniae ATCC BAA 1706, PMBN (+) 4 μg/mL
[46] = Klebsiella pneumoniae ATCC BAA 2146, PMBN (+) 4 μg/mL
[47] = Pseudomonas aeruginosa ATCC 9721, PMBN (+) 4 μg/mL, read-out: MIC
[48] = Pseudomonas aeruginosa, ATCC9721

O=C(O)[C@H](Cc1ccccc1)N1C(=O)/C(=C/c2cccc(Cc3ccc(Cl)c(Cl)c3)c2)SC1=S [Rh 3]
64 µM: MIC [8, 27]
>128 µM: MIC ([7]; K. pneumoniae NR-15417) | MIC [15, 44]
>64 µM: MIC [10, 32] | MIC [10, 33] | MIC [11, 34] | MIC [12, 36] | MIC [13, 38] | MIC [13, 39] | MIC [14, 43] | MIC [16, 45] | MIC [16, 46] | MIC [17, 47]
> 128 µM: MIC ([6]; ATCC9721) | MIC ([6]; ATCC15442) | MIC ([7]; Klebsiella pneumoniae) | MIC ([10]; Escherichia coli, ATCC35150) | MIC ([10]; Escherichia coli, ATCC700728) | MIC [11, 35] | MIC [12, 37] | MIC [13, 40] | MIC [13, 41] | MIC ([14]; Escherichia coli, ATCC700728) | MIC [15, 35] | MIC ([16]; Klebsiella pneumoniae, BAA1706) | MIC ([16]; Klebsiella pneumoniae, BAA2146) | MIC [17, 48]
> 64 µM: MIC [8, 22] | MIC [8, 23] | MIC [8, 24] | MIC [8, 25] | MIC [8, 26] | MIC [8, 28] | MIC [8, 29] | MIC [8, 30] | MIC [8, 31] | MIC ([9]; 24 h, Media TSB + 4% HSA)
4 µM: MIC50 [1] | MBC [3, 19] | MIC [3, 19] | MIC50 [4] | MIC90 [4] | MIC [5, 21]
2 µM: MBC ([2]; Bacillus anthracis AMES35) | MIC ([2]; Bacillus anthracis AMES35) | MBC ([2]; Bacillus anthracis UM23) | MIC ([2]; Bacillus anthracis UM23) | MBC ([2]; Bacillus anthracis Weybridge) | MIC ([2]; Bacillus anthracis Weybridge) | MBC [3, 18] | MIC [3, 18] | MIC ([5]; C. difficile HM-88) | MIC ([5]; C. difficile HM-746) | MIC [5, 20]
> 256 µM: MIC ([14]; Escherichia coli, ATCC35150)
8 µM: MIC90 [1] | MIC ([9]; Media TSB) | MIC [14, 42]
1 µM: MIC ([5]; C. difficile HM-745)

O=C(O)[C@H](Cc1ccccc1)N1C(=O)/C(=C/c2cccc(-c3ccccc3)c2)SC1=S [Rh 5]
4 µM: MBC ([2]; Bacillus anthracis Weybridge) | MIC50 [4] | MIC ([5]; C. difficile HM-88) | MIC ([5]; C. difficile HM-745) | MIC [5, 20] | MIC [5, 21]
16 µM: MIC90 [1] | MIC50 [1] | MIC ([9]; Media TSB)
> 64 µM: MIC [8, 22] | MIC [8, 23] | MIC [8, 24] | MIC [8, 25] | MIC [8, 26] | MIC [8, 27] | MIC [8, 28] | MIC [8, 29] | MIC [8, 30] | MIC [8, 31] | MIC ([9]; 24 h, Media TSB + 4% HSA)
2 µM: MBC ([2]; Bacillus anthracis AMES35) | MIC ([2]; Bacillus anthracis AMES35) | MBC ([2]; Bacillus anthracis UM23) | MIC ([2]; Bacillus anthracis UM23) | MIC ([2]; Bacillus anthracis Weybridge) | MIC ([5]; C. difficile HM-746)
>128 µM: MIC ([7]; K. pneumoniae NR-15417) | MIC [15, 44]
>64 µM: MIC [10, 32] | MIC [10, 33] | MIC [11, 34] | MIC [12, 36] | MIC [13, 38] | MIC [13, 39] | MIC [14, 43] | MIC [16, 45] | MIC [16, 46] | MIC [17, 47]
> 128 µM: MIC ([6]; ATCC9721) | MIC ([6]; ATCC15442) | MIC ([7]; Klebsiella pneumoniae) | MIC ([10]; Escherichia coli, ATCC35150) | MIC ([10]; Escherichia coli, ATCC700728) | MIC [11, 35] | MIC [12, 37] | MIC [13, 40] | MIC [13, 41] | MIC ([14]; Escherichia coli, ATCC700728) | MIC [15, 35] | MIC ([16]; Klebsiella pneumoniae, BAA1706) | MIC ([16]; Klebsiella pneumoniae, BAA2146) | MIC [17, 48]
> 256 µM: MIC ([14]; Escherichia coli, ATCC35150)
8 µM: MBC [3, 18] | MIC [3, 18] | MBC [3, 19] | MIC [3, 19] | MIC90 [4] | MIC [14, 42]
